Test results: US20200216416A1, “QUINOLINE COMPOUNDS AS INHIBITORS OF TAM AND MET KINASES” (Array BioPharma Inc., priority 2019, published 2020)
Where two headings read alike, the source gives them in different places.

How the values were obtained:
[1] = target: T1, MDR1 (P-gp) (Homo sapiens, UniProt P08183); assay: MDR1 LLC-PK1 permeability assay; type: in vitro ADME; conditions: pig, MDR1 transfected LLC-PK1 cells; for Papp at 2 h, 1 μM: permeability coefficient (Papp)
T1 construct: expressed in transfected cells; host or cells: LLC-PK1
Protocol: (§1) MDR1 transfected LLC-PK1 cells were cultured and plated according to manufacturer's recommendations with the exception that the passage media contained only 2% fetal bovine serum to extend passage time out to seven days.
(§2) Both positive and negative controls were used to assess functionality of P-gp efflux in the assay. Stock solutions for assay controls and the test article were prepared in DMSO for final test concentrations of 10 and 1 μM, respectively. Final organic concentration in the assay was 1%. All dosing solutions contained 10 μM lucifer yellow to monitor LLC-PK1 cell monolayer integrity.
(§3) For the apical to basolateral determination (A to B), 75 μL of the test article in transport buffer were added to the apical side of the individual transwells and 250 μL of basolateral media, without compound or lucifer yellow, were added to each well. For the basolateral to apical determination (B to A), 250 μL of test article in transport buffer were added to each well and 75 μL transport buffer, without compound or lucifer yellow, were added to each transwell. All tests were performed in triplicate, and each compound was tested for both apical to basolateral and basolateral to apical transport. The plates were incubated for 2 hours on a Lab-Line Instruments Titer Orbital Shaker (VWR, West Chester, Pa.) at 50 rpm and 37° C. with 5% CO2. All culture plates were removed from the incubator and 50 μL of media were removed from the apical and basolateral portion of each well and added to 150 μL of 1 μM labetalol in 2:1 acetonitrile (acetonitrile): H2O, v/v.
(§4) The plates were read using a Molecular Devices (Sunnyvale, Calif.) Gemini Fluorometer to evaluate the lucifer yellow concentrations at excitation/emission wavelengths of 425/535 nm. These values were accepted when found to be below 2% for apical to basolateral and 5% basolateral to apical flux across the MDR1-transfected LLC-PK1-transfected cell monolayers. The plates were sealed and the contents of each well analyzed by LC-MS/MS. The compound concentrations were determined from the ratio of the peak areas of the compound to the internal standard (labetalol) in comparison to the dosing solution.
(§5) The LC-MS/MS system was comprised of an HTS-PAL autosampler (Leap Technologies, Carrboro, N.C.), an HP1200 HPLC (Agilent, Palo Alto, Calif.), and a MDS Sciex 4000 Q Trap system (Applied Biosystems, Foster City, Calif.). […] The total run time, including re-equilibration, for a single injection was 1.2 minutes. Mass spectrometric detection of the analytes was accomplished using the ion spray positive mode. Analyte responses were measured by multiple reaction monitoring (MRM) of transitions unique to each compound (the protonated precursor ion and selected product ions for each test article and m/z 329 to m/z 162 for labetalol, the internal standard).
(§6) The permeability coefficient (Papp) is calculated from the following equation: […]
(§7) where Cd, V, t and C0 are the detected concentration (μM), the volume on the dosing side (mL), the incubation time (s) and the initial dosing concentration (μM), respectively. The calculations for Papp were made for each replicate and then averaged. In this assay, a compound is defined has having high permeability if the permeability is greater than 8×10^−6 cm/sec, a compound is defined has having medium permeability if the permeability is from 2×10^−6 cm/sec to 8×10^−6 cm/sec, and a compound is defined has having low permeability if the permeability is less than 2×10^−6 cm/sec.
(§8) An efflux ratio was calculated from the mean apical to basolateral (A-B) Papp data and basolateral to apical (B-A) Papp data:
(§9) Efflux ratio=Papp(B−A)/Papp(A−B)

[2] = target: T2, MDR1 transfected LLC-PK1 cells (Homo sapiens, UniProt P08183); assay: MDR1 LLC-PK1 permeability assay; type: in vitro ADME; conditions: efflux ratio = Papp(B-A)/Papp(A-B)
T2 construct: expressed in transfected cells; host or cells: LLC-PK1
Protocol: as §1, §2, §3, §4, §5, §6, §7, §8, §9

[3] = LLC-PK1, Papp(B−A)/Papp(A−B), test article 1 μM, 2 hours, 37° C., read-out: Efflux ratio
[4] = LLC-PK1, efflux ratio = Papp(B-A)/Papp(A-B), read-out: MDR1 Pe Ratio

T1 sequence (P08183 whole entry): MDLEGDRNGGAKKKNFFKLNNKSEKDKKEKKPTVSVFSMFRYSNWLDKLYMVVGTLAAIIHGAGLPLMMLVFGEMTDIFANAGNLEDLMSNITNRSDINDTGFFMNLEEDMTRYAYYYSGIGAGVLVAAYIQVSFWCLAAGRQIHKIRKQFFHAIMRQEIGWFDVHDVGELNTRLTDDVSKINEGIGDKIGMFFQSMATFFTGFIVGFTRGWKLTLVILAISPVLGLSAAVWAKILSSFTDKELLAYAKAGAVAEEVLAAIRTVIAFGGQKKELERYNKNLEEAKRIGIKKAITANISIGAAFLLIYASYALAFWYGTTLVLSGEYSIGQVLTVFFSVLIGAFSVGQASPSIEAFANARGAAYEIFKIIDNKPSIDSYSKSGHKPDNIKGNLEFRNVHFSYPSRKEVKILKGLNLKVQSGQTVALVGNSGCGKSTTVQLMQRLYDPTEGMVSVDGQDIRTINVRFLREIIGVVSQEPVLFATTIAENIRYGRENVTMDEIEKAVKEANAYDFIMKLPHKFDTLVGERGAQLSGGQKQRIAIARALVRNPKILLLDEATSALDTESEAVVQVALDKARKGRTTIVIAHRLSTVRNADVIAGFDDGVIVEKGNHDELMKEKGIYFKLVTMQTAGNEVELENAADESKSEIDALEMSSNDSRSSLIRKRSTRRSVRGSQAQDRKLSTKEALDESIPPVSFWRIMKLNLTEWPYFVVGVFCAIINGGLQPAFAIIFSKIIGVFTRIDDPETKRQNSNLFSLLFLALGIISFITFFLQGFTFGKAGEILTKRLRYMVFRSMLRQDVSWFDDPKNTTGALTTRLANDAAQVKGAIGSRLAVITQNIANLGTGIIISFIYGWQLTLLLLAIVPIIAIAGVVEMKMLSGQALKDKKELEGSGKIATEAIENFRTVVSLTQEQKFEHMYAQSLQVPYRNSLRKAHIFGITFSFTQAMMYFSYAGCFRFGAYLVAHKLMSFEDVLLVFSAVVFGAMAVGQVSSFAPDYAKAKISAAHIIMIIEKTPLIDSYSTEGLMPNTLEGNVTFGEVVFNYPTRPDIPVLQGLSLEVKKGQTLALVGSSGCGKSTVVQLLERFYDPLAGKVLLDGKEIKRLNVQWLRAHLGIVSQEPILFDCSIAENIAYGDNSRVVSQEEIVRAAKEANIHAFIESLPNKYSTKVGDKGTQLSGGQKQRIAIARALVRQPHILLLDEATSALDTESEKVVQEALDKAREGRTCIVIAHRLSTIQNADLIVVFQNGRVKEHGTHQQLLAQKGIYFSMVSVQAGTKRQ
T2 sequence (P08183 whole entry): as above

Row | Compound | efflux ratio at 2 h, 1 μM [1, 3] | Papp at 2 h, 1 μM [1] | MDR1 Pe Ratio [2] | efflux ratio at 2 h, 1 μM [1, 4]
1 | COc1cc2nccc(Oc3ccc(NC(=O)c4cn(CCC(C)C)cc(-c5ccc(F)c(F)c5)c4=O)nc3)c2cc1OC [Example 35, 5-(3,4-difluorophenyl)-N-(5-((6,7-dimethoxyquinolin-4yl)oxy)pyridin-2-yl)-1-isopentyl-4-oxo-1,4-dihydropyridine-3-carboxamide] | 3.5 | < 1 ×10⁻⁶ cm/s | 3.5 | –
2 | COc1cc2nccc(Oc3ccc(NC(=O)c4cn(C(C)C)cc(-c5ccc(F)c(Cl)c5)c4=O)nc3)c2cc1OC [Example 21, 5-(3-chloro-4-fluorophenyl)-N-(5-((6,7-dimethoxyquinolin-4-yl)oxy)pyridin-2-yl)-1-isopropyl-4-oxo-1,4-dihydropyridine-3-carboxamide] | 3.5 | 1.2 ×10⁻⁶ cm/s | – | 1.3
3 | COc1cc2c(Oc3ccc(NC(=O)c4cn(C(C)C)c(C)c(-c5ccc(F)cc5)c4=O)nc3)ccnc2cc1F [Example 48, N-(5-((7-fluoro-6-methoxyquinolin-4yl)oxy)pyridin-2-yl)-5-(4-fluorophenyl)-1-isopropyl-6-methyl-4-oxo-1,4-dihydropyridine-3-carboxamide] | 3.5 | 15 ×10⁻⁶ cm/s | – | 1.6
4 | COc1cc2nccc(Oc3ccc(NC(=O)c4cn(C(C)C)c(C(C)C)c(-c5ccc(F)cc5)c4=O)nc3)c2cc1OC [Example 38, N-(5-((6,7-dimethoxyquinolin-4yl)oxy)pyridin-2-yl)-5-(4-fluorophenyl)-1,6-diisopropyl-4-oxo-1,4-dihydropyridine-3-carboxamide] | – | 25 ×10⁻⁶ cm/s | – | –
5 | COc1cc2nccc(Oc3ccc(NC(=O)c4cn(C(C)C)cc(-c5ccc(F)cc5)c4=O)cn3)c2cc1OC [Example 58, N-(6-((6,7-dimethoxyquinolin-4-yl)oxy)pyridin-3-yl)-5-(4-fluorophenyl)-1-isopropyl-4-oxo-1,4-dihydropyridine-3-carboxamide] | 3.5 | 10 ×10⁻⁶ cm/s | – | 3
6 | CNC(=O)Cn1cc(C(=O)Nc2ccc(Oc3ccnc4cc(OC)c(OC)cc34)cn2)c(=O)c(-c2ccc(F)cc2)c1 [Example 22] | – | 2 ×10⁻⁶ cm/s | – | 80
7 | COc1cc2nccc(Oc3ccc(NC(=O)c4cn(C)c(C(C)C)c(-c5ccc(F)cc5)c4=O)nc3)c2cc1OC [Example 45, N-(5-((6,7-dimethoxyquinolin-4-yl)oxy)pyridin-2-yl)-5-(4-fluorophenyl)-6-isopropyl-1-methyl-4-oxo-1,4-dihydropyridine-3-carboxamide] | – | 5 ×10⁻⁶ cm/s | – | 16
8 | COc1cc2nccc(Oc3ccc(NC(=O)c4cn(CCN(C)C)cc(-c5ccc(Cl)cc5)c4=O)nc3)c2cc1OC [Example 42] | – | – | – | 12
9 | COc1cc2nccc(Oc3ccc(NC(=O)c4cn(CCN(C)C)cc(-c5ccc(F)c(F)c5)c4=O)nc3)c2cc1OC [Example 43, 5-(3,4-difluorophenyl)-N-(5-((6,7-dimethoxyquinolin-4-yl)oxy)pyridin-2-yl)-1-] | – | – | – | 13
10 | COc1cc2nccc(Oc3ccc(NC(=O)c4cn(CCC(C)C)cc(-c5ccc(Cl)cc5)c4=O)nc3)c2cc1OC [Example 37] | – | < 1 ×10⁻⁶ cm/s | – | 13

Further lines, results first:

Row | efflux ratio at 2 h, 1 μM [1, 3] | Papp at 2 h, 1 μM [1] | MDR1 Pe Ratio [2] | efflux ratio at 2 h, 1 μM [1, 4] | Compound
11 | 3.5 | 5 ×10⁻⁶ cm/s | – | 2.6 | COc1cc2nccc(Oc3ccc(NC(=O)c4cn(C(C)C)cc(-c5ccc(Cl)cc5)c4=O)nc3)c2cc1OC [Example 5, 5-(4-chlorophenyl)-N-(5-((6,7-dimethoxyquinolin-4-yl)oxy)pyridin-2-yl)-1-isopropyl-4-oxo-1,4-dihydropyridine-3-carboxamide]
12 | – | 10 ×10⁻⁶ cm/s | – | 4.3 | CCn1cc(C(=O)Nc2ccc(Oc3ccnc4cc(OC)c(OC)cc34)cn2)c(=O)c(-c2ccc(F)cc2)c1 [Example 3]
13 | – | < 1 ×10⁻⁶ cm/s | – | 20 | COc1cc2c(Oc3ccc(NC(=O)c4cn(C(C)C)cc(-c5ccc(F)cc5)c4=O)nc3)ccnc2cc1OCCCN1CCOCC1 [Example 56, 5-(4-fluorophenyl)-1-isopropyl-N-(5-((6-methoxy-7-(3-morpholinopropoxy)quinolin-4-yl)oxy)pyridin-2-yl)-4-oxo-1,4-dihydropyridine-3-carboxamide]
14 | – | 2 ×10⁻⁶ cm/s | – | 13 | COc1cc2nccc(Oc3ccc(NC(=O)c4cn(CCN(C)C)cc(-c5ccc(F)cc5)c4=O)nc3)c2cc1OC [Example 46]
15 | – | 12 ×10⁻⁶ cm/s | – | 114 | COc1cc2nccc(Oc3cnc(NC(=O)c4cn(C(C)C)cc(-c5ccc(F)cc5)c4=O)nc3)c2cc1OC [Example 54, N-(5-((6,7-dimethoxyquinolin-4-yl)oxy)pyrimidin-2-yl)-5-(4-fluorophenyl)-1-isopropyl-4-oxo-1,4-dihydropyridine-3-carboxamide]
